≈ marks a conversion by molar mass, not a printed value. Where two headings read alike, the source gives them in different places.
Legend:
[1] = test system: NADH dehydrogenases of V. cholerae membranes; format: biochemical; conditions: 50 μM, 200 μM NADH
terminal oxidases = format: biochemical; conditions: 50 μM inhibitor, 50 μM UQ-1
V. cholerae O395 [2] = assay: microbe, parasite or virus in culture; format: cell-based; conditions: for effect on growth of V. cholerae: 50 μM, midlogarithmic phase (8 h), LB medium; for MIC50: 8 h
NDH-2 [3] = format: biochemical; conditions: 50 μM
V. cholerae NQR complex = V. cholerae NQR complex (Vibrio cholerae serotype O1, UniProt Q9KPS2+Q9X4Q6); assay: biochemical; conditions: read-out: inhibition of the ubiquinone reductase activity
[4] = human
[5] = cited from earlier work
V. cholerae 2012EL-2176 = assay: microbe, parasite or virus in culture; format: cell-based; conditions: Vibrio cholerae
V. cholerae O395 [6] = assay: In vitro infection of T84 human intestinal cells, CFU of adherent and planktonic bacteria; format: cell-based; conditions: Vibrio cholerae
cholera toxin = assay: microbe, parasite or virus in culture; format: cell-based, Vibrio cholerae
[7] = test system: wildtype V. cholerae membranes; format: biochemical; conditions: 50 μM
NDH-2 [8] = format: biochemical; conditions: 50 μM; remark: listed apart in the source
V. cholerae wildtype = test system: V. cholerae wildtype; set-up: species or system mice; conditions: mouse, in vivo
V. cholerae 2010EL-1786 = assay: microbe, parasite or virus in culture; format: cell-based; conditions: Vibrio cholerae
[9] = single oral dose 25 mg/kg, M. tuberculosis infection model ref 31; cited from earlier work

CSc1ccc2c(c1)N(CCC1CCCCN1C)c1ccccc1S2 (centres unmarked) [thioridazine]
inhibition of respiratory activity with NADH [1]: strong inhibitors | respiratory activity with ubiquinol-1 (terminal oxidases): not sensitive | effect on growth of V. cholerae (V. cholerae O395 [2]): strong inhibitory effects | MIC50 (V. cholerae O395 [2]; Vibrio cholerae): 27 ± 2 µM (≈ 10 µg/mL) | inhibition of NDH-2 activity in membranes (NDH-2 [3]): insensitive

CN1CCN(CCCN2c3ccccc3Sc3ccc(C(F)(F)F)cc32)CC1 [trifluoperazine]
inhibition at 50 µM (V. cholerae NQR complex; 50 μM): 20 to 40%

CC(CN1c2ccccc2Sc2ccccc21)N(C)C (centres unmarked) [promethazine]
inhibition at 50 µM (V. cholerae NQR complex; 50 μM): 20 to 40%

CN1CCN(CCCN2c3ccccc3Sc3ccc(Cl)cc32)CC1 [prochlorperazine]
effect on growth of V. cholerae (V. cholerae O395 [2]): strong inhibitory effects | MIC50 (V. cholerae O395 [2]; Vibrio cholerae): 24 ± 3 µM (≈ 8.97 µg/mL)

CC(C)/N=c1\cc2n(-c3ccc(Cl)cc3)c3ccccc3nc-2cc1Nc1ccc(Cl)cc1 [clofazimine]
estimated concentration that can reach the proximal section of the small intestine [4]: around 150 μM | concentration in plasma [5]: submicromolar range | MIC (V. cholerae 2012EL-2176): 16 µM (≈ 7.57 µg/mL) | inhibition at 30 µM (V. cholerae O395 [6]; O395, T84, read-out: inhibition of the number of attached cells): > 75% | inhibition at 30 µM (V. cholerae O395 [6]; O395, T84, read-out: inhibition of the number of planktonic cells): > 90% | inhibition of cholera toxin production (cholera toxin; 30 µM): 92% | inhibition at 30 µM (cholera toxin; Vibrio cholerae, read-out: inhibition of cholera toxin production): 95% | inhibition of respiratory activity with NADH [1]: strong inhibitors | sensitivity of activity of wildtype membranes [7]: sensitive | sensitivity of NADH-dependent ubiquinol reductase activity of Δnqr membranes (NDH-2 [8]): insensitive | respiratory activity with ubiquinol-1 (terminal oxidases): not sensitive | inhibition at 50 µM (V. cholerae NQR complex): 95% | effect on growth of V. cholerae (V. cholerae O395 [2]): strong inhibitory effects | MIC (V. cholerae O395 [2]; Vibrio cholerae): 5 µM (≈ 2.37 µg/mL) | MIC50 (V. cholerae O395 [2]; Vibrio cholerae): 3.4 ± 0.2 µM (≈ 1.61 µg/mL) | survival of infected mice (V. cholerae wildtype): to the same extent as ampicillin | MIC (V. cholerae 2010EL-1786): 16 µM (≈ 7.57 µg/mL) | inhibition of NDH-2 activity in membranes (NDH-2 [3]): insensitive | peak serum concentration [9]: 0.43 µg/mL

OCCN1CCN(CCCN2c3ccccc3Sc3ccc(Cl)cc32)CC1 [perphenazine]
inhibition at 50 µM (V. cholerae NQR complex; 50 μM): 20 to 40%

CC1(C)S[C@@H]2[C@H](NC(=O)[C@H](N)c3ccccc3)C(=O)N2[C@H]1C(=O)O [ampicillin]
survival of infected mice (V. cholerae wildtype): almost twice

CN(C)CCCN1c2ccccc2Sc2ccc(Cl)cc21 [chlorpromazine]
inhibition at 50 µM (V. cholerae NQR complex): 20 to 40% | effect on growth of V. cholerae (V. cholerae O395 [2]): antimicrobial properties

— paper PMC12336824 (The Journal of Biological Chemistry, 2025)
